The values that follow come from US20230265151A1, “GIP/GLP1 CO-AGONIST COMPOUNDS” (priority 2020, published 2023).

What is called Emax is the greatest response seen or fitted, relative to the assay's reference. In general, EC50 refers to the concentration that produces a half-maximal response.

Each structure is given as a SMILES string. Where two headings read alike, the source gives them in different places.

Type in all cases: cell-based
One experiment concerns the target T1, hGIPR (Homo sapiens, UniProt P48546).
T1 construct: expressed in transfected cells
T1 sequence (P48546 22-466): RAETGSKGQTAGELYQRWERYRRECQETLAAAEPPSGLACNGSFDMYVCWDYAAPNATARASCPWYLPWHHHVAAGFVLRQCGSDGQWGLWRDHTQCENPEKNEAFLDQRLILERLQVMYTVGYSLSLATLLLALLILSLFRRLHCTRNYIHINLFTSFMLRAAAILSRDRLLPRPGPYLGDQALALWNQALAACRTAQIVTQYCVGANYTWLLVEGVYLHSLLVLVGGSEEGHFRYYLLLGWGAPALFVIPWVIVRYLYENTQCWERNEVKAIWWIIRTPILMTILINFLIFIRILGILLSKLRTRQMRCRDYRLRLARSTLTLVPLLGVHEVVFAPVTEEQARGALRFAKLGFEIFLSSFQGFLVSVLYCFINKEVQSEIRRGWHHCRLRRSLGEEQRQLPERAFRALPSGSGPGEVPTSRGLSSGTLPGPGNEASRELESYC
Description: Functional cAMP formation (HTRF) in HEK-293 clonal cells expressing hGIPR, 0.1% bovine casein, without or with 1.0% human serum albumin. The settings on record: for Emax: percent of maximal response to GIP(1-42)NH2; for EC50: geometric mean. An outline of the steps: (§1)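 Cells were stimulated with peptide for 30 min at 37° C, then intracellular cAMP was measured by competitive HTRF (665/620 nm ratio) and converted to nM using a cAMP standard curve. Relative EC50 and Emax came from four-parameter logistic fits of percent maximal response against peptide concentration.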
(In general: Cyclic AMP is a second messenger, typically raised through Gs and lowered through Gi signalling.)

A further experiment deals with T2, hGCGR (Homo sapiens, UniProt P47871).
T2 construct: expressed in transfected cells
T2 sequence (P47871 26-477): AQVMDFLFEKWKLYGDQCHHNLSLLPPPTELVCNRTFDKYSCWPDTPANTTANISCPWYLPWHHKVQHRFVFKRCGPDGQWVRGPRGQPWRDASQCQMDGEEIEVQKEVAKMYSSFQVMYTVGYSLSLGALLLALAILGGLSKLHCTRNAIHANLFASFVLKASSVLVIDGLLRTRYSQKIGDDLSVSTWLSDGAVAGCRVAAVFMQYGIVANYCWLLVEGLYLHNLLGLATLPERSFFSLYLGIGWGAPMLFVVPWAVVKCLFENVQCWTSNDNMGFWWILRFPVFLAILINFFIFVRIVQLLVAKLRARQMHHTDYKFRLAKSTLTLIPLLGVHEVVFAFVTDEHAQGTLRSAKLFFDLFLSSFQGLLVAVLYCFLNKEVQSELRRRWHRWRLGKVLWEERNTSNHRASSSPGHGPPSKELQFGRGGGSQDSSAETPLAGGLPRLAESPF
Description: Functional cAMP formation (HTRF) in HEK-293 clonal cells expressing hGCGR, 0.1% bovine casein, without or with 1.0% human serum albumin. The following applies: 37° C. The method in brief: as §1

The target in another experiment is hGLP-1R (Homo sapiens, UniProt P43220). Description: Functional cAMP formation (HTRF) in HEK-293 clonal cells expressing hGLP-1R, 0.1% bovine casein, without or with 1.0% human serum albumin. Details: expressed in transfected cells. The settings on record: for Emax: percent of maximal response to GLP-1(7-36)NH2; for EC50: cAMP, 0.1% bovine casein (no human serum albumin), geometric mean. The method in brief:
as §1

Where [1] appears, read: HEK293, read-out: hGIPR Emax, % ± SEM, cAMP, 37° C., 0.1% bovine casein, arithmetic mean.
Where [2] appears, read: hGIPR EC50, nM (SEM, n), cAMP, 37° C., 0.1% bovine casein (no human serum albumin).
[3] abbreviates: hGCGR EC50, nM (SEM, n), 0.1% bovine casein and 1.0% human serum albumin, geometric mean.
Where [4] appears, read: hGCGR EC50, nM (SEM, n), cAMP, 0.1% bovine casein (no human serum albumin), geometric mean.
The mark [5] stands for this setting: HEK293, read-out: hGLP-1R Emax, % ± SEM, 0.1% bovine casein and 1.0% human serum albumin, 37° C.
Where [6] appears, read: HEK293, read-out: hGLP-1R Emax, % ± SEM, cAMP, 37° C., 0.1% bovine casein, arithmetic mean.
[7] abbreviates: hGLP-1R EC50, nM (SEM, n), 37° C.
Where [8] appears, read: HEK293, read-out: hGIPR Emax, % ± SEM, 0.1% bovine casein and 1.0% human serum albumin, 37° C.

Sequence of hGLP-1R (P43220 24-463): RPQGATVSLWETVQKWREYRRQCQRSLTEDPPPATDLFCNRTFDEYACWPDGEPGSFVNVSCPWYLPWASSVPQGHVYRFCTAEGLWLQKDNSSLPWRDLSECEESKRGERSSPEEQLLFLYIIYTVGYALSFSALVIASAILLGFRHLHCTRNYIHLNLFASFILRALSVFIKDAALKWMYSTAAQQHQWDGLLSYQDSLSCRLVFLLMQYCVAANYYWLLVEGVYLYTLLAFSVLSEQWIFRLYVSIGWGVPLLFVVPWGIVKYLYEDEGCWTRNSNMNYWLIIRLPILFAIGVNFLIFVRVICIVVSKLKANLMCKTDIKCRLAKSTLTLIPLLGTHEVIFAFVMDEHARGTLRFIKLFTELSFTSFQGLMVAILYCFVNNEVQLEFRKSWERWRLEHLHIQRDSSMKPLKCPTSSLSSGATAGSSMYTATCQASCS

On to `CC[C@H](C)[C@H](NC(=O)[C@H](CCCN)NC(=O)[C@H](CC(=O)O)NC(=O)[C@H](CC(C)C)NC(=O)[C@](C)(CC(C)C)NC(=O)[C@@H](NC(=O)[C@H](CO)NC(=O)[C@H](Cc1ccc2ccccc2c1)NC(=O)[C@H](CC(=O)O)NC(=O)[C@H](CO)NC(=O)[C@@H](NC(=O)[C@](C)(Cc1ccccc1F)NC(=O)[C@@H](NC(=O)CNC(=O)[C@H](CCC(=O)O)NC(=O)C(C)(C)NC(=O)[C@@H](N)Cc1ccc(O)cc1)[C@@H](C)O)[C@@H](C)O)[C@@H](C)CC)C(=O)N[C@@H](C)C(=O)N[C@@H](CCC(N)=O)C(=O)NC(C)(C)C(=O)N[C@@H](CCCCNC(=O)COCCOCCNC(=O)COCCOCCNC(=O)CC[C@H](NC(=O)CCCCCCCCCOc1ccc(C(=O)O)cc1)C(=O)O)C(=O)N[C@@H](Cc1ccccc1)C(=O)N[C@H](C(=O)N[C@H](CCC(=O)O)C(=O)N[C@@](C)(Cc1ccc(O)cc1)C(=O)N[C@@H](CC(C)C)C(=O)N[C@H](C(=O)N[C@@H](CCCCNC(=O)COCCOCCNC(=O)COCCOCCNC(=O)CC[C@H](NC(=O)CCCCCCCCCOc1ccc(C(=O)O)cc1)C(=O)O)C(=O)NCC(=O)NCC(=O)N1CCC[C@H]1C(=O)N[C@@H](CO)C(=O)N[C@@H](CO)C(=O)NCC(=O)N[C@@H](C)C(=O)N1CCC[C@H]1C(=O)N1CCC[C@H]1C(=O)N1CCC[C@H]1C(=O)N[C@@H](CO)C(N)=O)[C@@H](C)CC)[C@@H](C)CC` [Example 284], for which the Emax on hGIPR (setting [1]) worked out at 98.3%; on hGLP-1R (setting [5]), 112%; on hGLP-1R (setting [6]), 110%. The EC50 at hGIPR (setting [2]) was 0.0389 nM; on hGCGR (setting [3]), over 9950 nM; at hGCGR (setting [4]), over 9950 nM; at hGLP-1R (setting [7]), 0.505 nM.

As to `CC[C@H](C)[C@H](NC(=O)[C@H](CC(C)C)NC(=O)[C@](C)(Cc1ccc(O)cc1)NC(=O)[C@@H](CCC(=O)O)NC(=O)[C@@H](NC(=O)[C@H](Cc1ccccc1)NC(=O)[C@H](CCCCNC(=O)COCCOCCNC(=O)COCCOCCNC(=O)CCCCCCCCCCCCC(=O)O)NC(=O)C(C)(C)NC(=O)[C@H](CCC(N)=O)NC(=O)[C@H](C)NC(=O)[C@H](CCCCNC(=O)COCCOCCNC(=O)COCCOCCNC(=O)CCCCCCCCCCCCC(=O)O)NC(=O)[C@H](CCCN)NC(=O)[C@H](CC(=O)O)NC(=O)[C@H](CC(C)C)NC(=O)[C@](C)(CC(C)C)NC(=O)[C@@H](NC(=O)C(C)(C)NC(=O)[C@H](Cc1ccc(O)cc1)NC(=O)[C@H](CC(=O)O)NC(=O)[C@H](CO)NC(=O)[C@@H](NC(=O)[C@](C)(Cc1ccccc1F)NC(=O)[C@@H](NC(=O)CNC(=O)[C@H](CCC(=O)O)NC(=O)C(C)(C)NC(=O)[C@@H](N)Cc1ccc(O)cc1)[C@@H](C)O)[C@@H](C)O)[C@@H](C)CC)[C@@H](C)CC)C(=O)N[C@@H](CCC(=O)O)C(=O)NCC(=O)NCC(=O)N1CCC[C@H]1C(=O)N[C@@H](CO)C(=O)N[C@@H](CO)C(=O)NCC(=O)N[C@@H](C)C(=O)N1CCC[C@H]1C(=O)N1CCC[C@H]1C(=O)N1CCC[C@H]1C(=O)N[C@@H](CO)C(N)=O` [Example 385], the Emax at hGIPR (HEK293, cAMP, 37° C., 0.1% bovine casein and 1.0% human serum albumin, read-out: hGIPR Emax, % ± SEM) stood at 83.5%; at hGIPR (HEK293, cAMP, 37° C., 0.1% bovine casein, arithmetic mean, read-out: hGIPR Emax, % ± SEM) it was 95.2%; at hGLP-1R (HEK293, cAMP, 37° C., 0.1% bovine casein and 1.0% human serum albumin, read-out: hGLP-1R Emax, % ± SEM), 112%; at hGLP-1R (HEK293, cAMP, 37° C., 0.1% bovine casein, arithmetic mean, read-out: hGLP-1R Emax, % ± SEM) it was 100%. Also, the EC50 is 0.0154 nM on hGIPR (cAMP, 37° C., 0.1% bovine casein (no human serum albumin), read-out: hGIPR EC50, nM (SEM, n)); over 9950 nM at hGCGR (cAMP, 0.1% bovine casein (no human serum albumin), geometric mean, read-out: hGCGR EC50, nM (SEM, n)); over 9950 nM at hGCGR (cAMP, 0.1% bovine casein and 1.0% human serum albumin, geometric mean (SEM, n), read-out: hGCGR EC50, nM (SEM, n)); 0.189 nM on hGLP-1R (37° C., read-out: hGLP-1R EC50, nM (SEM, n)).

As to `CC[C@H](C)[C@H](NC(=O)[C@H](CCCN)NC(=O)[C@H](CC(=O)O)NC(=O)[C@H](CC(C)C)NC(=O)[C@](C)(CC(C)C)NC(=O)[C@@H](NC(=O)[C@H](CO)NC(=O)[C@H](CCc1ccc(O)cc1)NC(=O)[C@H](CC(=O)O)NC(=O)[C@H](CO)NC(=O)[C@@H](NC(=O)[C@](C)(Cc1ccccc1F)NC(=O)[C@@H](NC(=O)CNC(=O)[C@H](CCC(=O)O)NC(=O)C(C)(C)NC(=O)[C@@H](N)Cc1ccc(O)cc1)[C@@H](C)O)[C@@H](C)O)[C@@H](C)CC)C(=O)N[C@@H](C)C(=O)N[C@@H](CCC(N)=O)C(=O)NC(C)(C)C(=O)N[C@@H](CCC(=O)O)C(=O)N[C@@H](Cc1ccccc1)C(=O)N[C@H](C(=O)N[C@@H](CCCCNC(=O)COCCOCCNC(=O)COCCOCCNC(=O)CC[C@H](NC(=O)CCCCCCCCCOc1ccc(C(=O)O)cc1)C(=O)O)C(=O)N[C@@](C)(Cc1ccc(O)cc1)C(=O)N[C@@H](CC(C)C)C(=O)N[C@H](C(=O)N[C@@H](CCCCNC(=O)COCCOCCNC(=O)COCCOCCNC(=O)CC[C@H](NC(=O)CCCCCCCCCOc1ccc(C(=O)O)cc1)C(=O)O)C(=O)NCC(=O)NCC(=O)N1CCC[C@H]1C(=O)N[C@@H](CO)C(=O)N[C@@H](CO)C(=O)NCC(=O)N[C@@H](C)C(=O)N1CCC[C@H]1C(=O)N1CCC[C@H]1C(=O)N1CCC[C@H]1C(=O)N[C@@H](CO)C(N)=O)[C@@H](C)CC)[C@@H](C)CC` [Example 310], the Emax on hGIPR (setting [8]) is 83.9%; on hGLP-1R (setting [6]) it was 105%. Moreover, the 50% effective concentration (EC50) at hGIPR (setting [2]) was 0.025 nM; on hGCGR (setting [3]), over 9950 nM; at hGCGR (setting [4]) it was over 9950 nM; at hGLP-1R (setting [7]) it was 0.347 nM.

On to `CC[C@H](C)[C@H](NC(=O)[C@H](CCCN)NC(=O)[C@H](CC(=O)O)NC(=O)[C@H](CC(C)C)NC(=O)[C@](C)(CC(C)C)NC(=O)[C@@H](NC(=O)[C@](C)(CO)NC(=O)[C@H](Cc1ccc(O)cc1)NC(=O)[C@H](CC(=O)O)NC(=O)[C@H](CO)NC(=O)[C@@H](NC(=O)[C@](C)(Cc1ccccc1F)NC(=O)[C@@H](NC(=O)CNC(=O)[C@H](CCC(=O)O)NC(=O)C(C)(C)NC(=O)[C@@H](N)Cc1ccc(O)cc1)[C@@H](C)O)[C@@H](C)O)[C@@H](C)CC)C(=O)N[C@@H](C)C(=O)N[C@@H](CCC(N)=O)C(=O)NC(C)(C)C(=O)N[C@@H](CCC(=O)O)C(=O)N[C@@H](Cc1ccccc1)C(=O)N[C@H](C(=O)N[C@@H](CCCCNC(=O)COCCOCCNC(=O)COCCOCCNC(=O)CC[C@H](NC(=O)CCCCCCCCCOc1ccc(C(=O)O)cc1)C(=O)O)C(=O)N[C@@](C)(Cc1ccc(O)cc1)C(=O)N[C@@H](CC(C)C)C(=O)N[C@H](C(=O)N[C@@H](CCCCNC(=O)COCCOCCNC(=O)COCCOCCNC(=O)CC[C@H](NC(=O)CCCCCCCCCOc1ccc(C(=O)O)cc1)C(=O)O)C(=O)NCC(=O)NCC(=O)N1CCC[C@H]1C(=O)N[C@@H](CO)C(=O)N[C@@H](CO)C(=O)NCC(=O)N[C@@H](C)C(=O)N1CCC[C@H]1C(=O)N1CCC[C@H]1C(=O)N1CCC[C@H]1C(=O)N[C@@H](CO)C(N)=O)[C@@H](C)CC)[C@@H](C)CC` [Example 307], for which the Emax at hGIPR (setting [8]) was determined as 81.8%; at hGIPR (setting [1]), 105%; at hGLP-1R (setting [5]), 109%. Besides, the half-maximal effective concentration (EC50) is 1.66 nM on hGIPR (hGIPR EC50, nM (SEM, n), 0.1% bovine casein and 1.0% human serum albumin, 37° C.); 0.0292 nM at hGIPR (setting [2]); over 9950 nM at hGCGR (setting [3]); over 9950 nM at hGCGR (setting [4]); 0.376 nM on hGLP-1R (setting [7]).
